Consider 60 compounds from patent US7772252B2, “Heterocyclic substituted carbonyl derivatives and their use as dopamine D3 receptor ligands” (Aventis Pharmaceuticals Inc., priority 2001, dated 2010).

The target of the experiment is T1, cloned human dopamine D3 receptors (Homo sapiens, UniProt P35462).
T1 construct: expressed in transfected cells; membrane homogenate
T1 sequence (P35462 whole entry): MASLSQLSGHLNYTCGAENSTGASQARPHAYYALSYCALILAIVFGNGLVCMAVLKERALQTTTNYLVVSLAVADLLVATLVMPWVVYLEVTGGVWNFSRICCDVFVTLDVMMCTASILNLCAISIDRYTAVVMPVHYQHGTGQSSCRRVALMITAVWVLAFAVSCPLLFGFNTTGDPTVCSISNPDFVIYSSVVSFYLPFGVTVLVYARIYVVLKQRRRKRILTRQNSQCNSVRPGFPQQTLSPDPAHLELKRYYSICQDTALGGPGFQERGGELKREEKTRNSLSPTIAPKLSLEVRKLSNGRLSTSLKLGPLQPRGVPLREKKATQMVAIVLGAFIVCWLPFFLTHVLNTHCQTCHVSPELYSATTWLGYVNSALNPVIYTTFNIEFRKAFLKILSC
The experiment in a line: [N-Methyl-3H]Spiroperidol binding to cloned human dopamine D3 receptors. The following applies: read-out: D3 Ki. An outline of the steps: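 Stably transfected CHO cells expressing cloned human D3 receptor were used as membranes homogenized in 10% DMSO. Ligand was [N-methyl-3H]spiroperidol displacement.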
Broadly, the Ki is a measure of affinity in units of concentration, obtained from inhibition or displacement. Turning to `CC(C)(C)OC(=O)N1CCC(NC(=O)[C@@H]2C[C@H]2CN2CCN(c3csc4cc(C(F)(F)F)ccc34)CC2)CC1` [compound 832499], the Ki was determined as 19.7 nM.
Take `O=C([C@@H]1C[C@H]1CN1CCN(c2csc3cc(C(F)(F)F)ccc23)CC1)N1CCC(N2CCCC2)CC1` [compound 832510]: the inhibition constant Ki is 25 nM.
As to `O=C(NCCCN1CCCCCC1)[C@@H]1C[C@H]1CN1CCN(c2csc3cc(C(F)(F)F)ccc23)CC1` [compound 832511], the inhibition constant (Ki) is 12.3 nM.
The same measure for `Cc1nc(Cl)c(Cl)n1CCCNC(=O)[C@@H]1C[C@H]1CN1CCN(c2csc3cc(C(F)(F)F)ccc23)CC1` [compound 832512]: 15.7 nM; for `CC[C@H]1CC[C@H](NC(=O)C2(CCN3CCN(c4csc5cc(C(F)(F)F)ccc45)CC3)CC2)CC1` [compound 832517]: 173 nM.
The same measure for `O=C(NCCCN1CCOCC1)C1(CCN2CCN(c3csc4cc(C(F)(F)F)ccc34)CC2)CC1` [compound 832518]: 98.2 nM.
The result for `O=C(NCCc1ccccc1)C1(CCN2CCN(c3csc4cc(C(F)(F)F)ccc34)CC2)CC1` [compound 832519] reads 97.5 nM.
Consider `O=C(N[C@H]1CC[C@H](O)CC1)C1(CCN2CCN(c3csc4cc(C(F)(F)F)ccc34)CC2)CC1` [compound 832520], for which the Ki turned out to be 141 nM.
The result for `O=C([C@@H]1C[C@H]1CN1CCC(c2noc3ccsc23)CC1)N1CCC(c2nc3ccccc3s2)CC1` [compound 832527] reads 45.4 nM.
The same measure for `O=C(NCCS(=O)(=O)c1cccc2c(Cl)cccc12)[C@@H]1C[C@H]1CN1CCC(c2noc3ccsc23)CC1` [compound 832528]: 48.5 nM; for `O=C(NCCN1CCNC1=O)[C@@H]1C[C@H]1CN1CCC(c2noc3ccsc23)CC1` [compound 832529]: 146 nM.
The result for `O=C(NCCCCc1cccnc1)[C@@H]1C[C@H]1CN1CCC(c2noc3ccsc23)CC1` [compound 832530] reads 16 nM; that for `O=C([C@@H]1C[C@H]1CN1CCC(c2noc3ccsc23)CC1)N1CCC(n2c(=O)[nH]c3ccccc32)CC1` [compound 832531], 67.7 nM.
`O=C([C@@H]1C[C@H]1CN1CCC(c2noc3ccsc23)CC1)N1CCN(Cc2ccc(Cl)c(Cl)c2)CC1` [compound 832532]: the inhibitory constant (Ki) came out at 14.4 nM.
The result for `O=C(NCCCn1ccnc1)[C@@H]1C[C@H]1CN1CCN(c2nn(-c3ccc(F)cc3)c3ccsc23)CC1` [compound 832565] reads 1.45 nM; that for `O=C(N[C@H]1CC[C@H](O)CC1)[C@@H]1C[C@H]1CN1CCN(c2nn(-c3ccc(F)cc3)c3ccsc23)CC1` [compound 832566], 1.76 nM; that for `CN1CCC(N(C)C(=O)[C@@H]2C[C@H]2CN2CCN(c3csc4cc(C(F)(F)F)ccc34)CC2)CC1` [compound 832577], 1.85 nM.
For the compound `CN1CCN(CCCNC(=O)[C@@H]2C[C@H]2CN2CCN(c3csc4cc(C(F)(F)F)ccc34)CC2)CC1` [compound 832579], the inhibitory constant (Ki) was 6.29 nM.
The same measure for `CN(C)CCN1CCN(C(=O)[C@@H]2C[C@H]2CN2CCN(c3csc4cc(C(F)(F)F)ccc34)CC2)CC1` [compound 832580]: 28.8 nM.
The result for `O=C([C@@H]1C[C@H]1CN1CCN(c2csc3cc(C(F)(F)F)ccc23)CC1)N1CCN(CCOCCO)CC1` [compound 832581] reads 67.3 nM.
As to `CC(C)NC(=O)CN1CCN(C(=O)[C@@H]2C[C@H]2CN2CCN(c3csc4cc(C(F)(F)F)ccc34)CC2)CC1` [compound 832582], the inhibition constant (Ki) amounted to 25 nM.
The result for `O=C(NC1CCN(Cc2ncc[nH]2)CC1)[C@@H]1C[C@H]1CN1CCN(c2csc3cc(C(F)(F)F)ccc23)CC1` [compound 832583] reads 1.61 nM; that for `O=C(NCCCn1ccnc1)[C@@H]1C[C@H]1CN1CCN(c2nn(-c3ccccc3)c3ccsc23)CC1` [compound 832592], 7.29 nM.
The same measure for `O=C(NCCCn1ccnc1)[C@@H]1C[C@H]1CN1CCN(c2nn(-c3ccc(C(F)(F)F)cc3)c3ccsc23)CC1` [compound 832634]: 7.63 nM.
The result for `O=C(N[C@H]1CC[C@H](O)CC1)[C@@H]1C[C@H]1CN1CCN(c2nn(-c3ccc(C(F)(F)F)cc3)c3ccsc23)CC1` [compound 832648] reads 20.8 nM; that for `O=C(NCCCN1CCCCC1)[C@@H]1C[C@H]1CN1CCC(c2cc3ccccc3s2)CC1` [compound 832714], 12.4 nM; that for `O=C([C@@H]1C[C@H]1CN1CCC(c2cc3ccccc3s2)CC1)N1CCC(N2CCCC2)CC1` [compound 832715], 166 nM.
As to `O=C(NC1CCN(Cc2ccc(Cl)c(Cl)c2)CC1)[C@@H]1C[C@H]1CN1CCC(c2cc3ccccc3s2)CC1` [compound 832716], the inhibitory constant (Ki) was determined as 7.54 nM.
The result for `O=C([C@@H]1C[C@H]1CN1CCC(c2noc3ccsc23)CC1)N1CCC(Oc2ccc(Cl)cc2)CC1` [compound 832723] reads 54 nM.
The same measure for `COc1ccccc1CN1CCC(NC(=O)[C@@H]2C[C@H]2CN2CCC(c3noc4ccsc34)CC2)CC1` [compound 832724]: 1.44 nM; for `O=C(NCCc1ccc(F)cc1)[C@@H]1C[C@H]1CN1CCC(c2noc3ccsc23)CC1` [compound 832725]: 4.22 nM; for `O=C(NCCc1cccc(F)c1)[C@@H]1C[C@H]1CN1CCC(c2noc3ccsc23)CC1` [compound 832726]: 7.05 nM.
The same measure for `O=C(NC1CCN(Cc2cccc(Cl)c2)CC1)[C@@H]1C[C@H]1CN1CCC(c2noc3ccsc23)CC1` [compound 832728]: 3.12 nM; for `O=C(NC1CCN(Cc2ccc(Cl)cc2)CC1)[C@@H]1C[C@H]1CN1CCC(c2noc3ccsc23)CC1` [compound 832729]: 1.67 nM; for `O=C(NC1CCN(Cc2ccccc2Cl)CC1)[C@@H]1C[C@H]1CN1CCC(c2noc3ccsc23)CC1` [compound 832730]: 3.62 nM.
Turning to `O=C(NC1CCN(Cc2ccc(Cl)c(Cl)c2)CC1)[C@@H]1C[C@H]1CN1CCC(c2noc3ccsc23)CC1` [compound 832731], the inhibition constant (Ki) is 0.699 nM.
For `O=C(NC1CCN(Cc2ccc(F)cc2)CC1)[C@@H]1C[C@H]1CN1CCC(c2noc3ccsc23)CC1` [compound 832732], the Ki turned out to be 0.74 nM.
The result for `O=C(NC1CCN(CC2CCCCC2)CC1)[C@@H]1C[C@H]1CN1CCC(c2noc3ccsc23)CC1` [compound 832733] reads 0.656 nM.
The result for `O=C([C@@H]1C[C@H]1CN1CCN(c2csc3cc(C(F)(F)F)ccc23)CC1)N1CCN(CCO)CC1` [compound 832735] reads 36.8 nM.
The same measure for `O=C(NC1CCN(Cc2ccc(Cl)cc2)CC1)[C@@H]1C[C@H]1CN1CCN(c2csc3cc(C(F)(F)F)ccc23)CC1` [compound 832737]: 5.42 nM; for `COc1ccccc1CN1CCC(NC(=O)[C@@H]2C[C@H]2CN2CCN(c3csc4cc(C(F)(F)F)ccc34)CC2)CC1` [compound 832739]: 2.89 nM.
With `O=C(NC1CCN(Cc2cccc(Cl)c2)CC1)[C@@H]1C[C@H]1CN1CCN(c2csc3cc(C(F)(F)F)ccc23)CC1` [compound 832740], the inhibition constant Ki stood at 30.2 nM.
As to `O=C(NC1CCN(Cc2ccccc2Cl)CC1)[C@@H]1C[C@H]1CN1CCN(c2csc3cc(C(F)(F)F)ccc23)CC1` [compound 832741], the Ki came out at 6.03 nM.
The result for `COc1ccc2c(c1)c(N1CCN(C[C@@H]3C[C@H]3C(=O)NC3CCN(CC4CCCCC4)CC3)CC1)nn2C` [compound 832743] reads 2.36 nM.
As for `COc1ccc2c(c1)c(N1CCN(C[C@@H]3C[C@H]3C(=O)NC3CCN(CC4CC4)CC3)CC1)nn2C` [compound 832744], the inhibitory constant (Ki) was 1.37 nM.
The result for `COc1ccc2c(c1)c(N1CCN(C[C@@H]3C[C@H]3C(=O)N(C)C3CCN(C)CC3)CC1)nn2C` [compound 832745] reads 15 nM; that for `Cc1cccc(CN2CCC(NC(=O)[C@@H]3C[C@H]3CN3CCC(c4noc5ccsc45)CC3)CC2)c1` [compound 832788], 1.84 nM.
The result for `Cc1cccc(CN2CCC(NC(=O)[C@@H]3C[C@H]3CN3CCN(c4csc5cc(C(F)(F)F)ccc45)CC3)CC2)c1` [compound 832789] reads 3.05 nM; that for `O=C(N[C@H]1CC[C@H](O)CC1)[C@@H]1C[C@H]1CN1CCN(c2nn(-c3ccccc3)c3ccsc23)CC1` [compound 832816], 2.57 nM; that for `CC(C)N1CCN(C(=O)[C@@H]2C[C@H]2CN2CCN(c3csc4cc(C(F)(F)F)ccc34)CC2)CC1` [compound 832833], 18.2 nM.
`C=CCN1CCN(C(=O)[C@@H]2C[C@H]2CN2CCN(c3csc4cc(C(F)(F)F)ccc34)CC2)CC1` [compound 832834]: the inhibitory constant (Ki) worked out at 12.2 nM.
The result for `COCCN1CCN(C(=O)[C@@H]2C[C@H]2CN2CCN(c3csc4cc(C(F)(F)F)ccc34)CC2)CC1` [compound 832835] reads 18.1 nM.
Regarding `C[C@H]1CC[C@H](NC(=O)[C@@H]2C[C@H]2CN2CCN(c3nn(-c4ccccc4)c4ccsc34)CC2)CC1` [compound 832849], the Ki turned out to be 1.12 nM.
The same measure for `C[C@H]1CC[C@H](NC(=O)[C@@H]2C[C@H]2CN2CCN(c3nn(-c4ccc(F)cc4)c4ccsc34)CC2)CC1` [compound 832850]: 0.264 nM; for `O=C(NCC1CCNCC1)[C@@H]1C[C@H]1CN1CCN(c2csc3cc(C(F)(F)F)ccc23)CC1` [compound 832859]: 14.3 nM; for `C[C@H]1CC[C@H](NC(=O)[C@@H]2C[C@H]2CN2CCN(c3nn(-c4ccc(C(F)(F)F)cc4)c4ccsc34)CC2)CC1` [compound 832881]: 37.9 nM.
The same measure for `O=C(NCc1cccc(OC(F)(F)F)c1)[C@@H]1C[C@H]1CN1CCN(c2csc3cc(C(F)(F)F)ccc23)CC1` [compound 833062]: 55.4 nM; for `CC(=O)N1CCC(CNC(=O)[C@@H]2C[C@H]2CN2CCN(c3csc4cc(C(F)(F)F)ccc34)CC2)CC1` [compound 833065]: 692 nM.
In the case of `Cn1nc(C2CCN(C[C@@H]3C[C@H]3C(=O)N[C@H]3CC[C@H](O)CC3)CC2)c2cccc(C(F)(F)F)c21` [compound 833080], the Ki was found to be 22.9 nM.
The result for `Cn1nc(C2CCN(C[C@@H]3C[C@H]3C(=O)N3CCC(N4CCCCC4)CC3)CC2)c2cccc(C(F)(F)F)c21` [compound 833091] reads 118 nM.
